Experimental data: ChEMBL document CHEMBL3639059, “Pyrazolothiazole compound” (2013)

Biological target: T1, Corticotropin-releasing factor receptor 1 (Homo sapiens, UniProt P34998)
T1 sequence (P34998 whole entry): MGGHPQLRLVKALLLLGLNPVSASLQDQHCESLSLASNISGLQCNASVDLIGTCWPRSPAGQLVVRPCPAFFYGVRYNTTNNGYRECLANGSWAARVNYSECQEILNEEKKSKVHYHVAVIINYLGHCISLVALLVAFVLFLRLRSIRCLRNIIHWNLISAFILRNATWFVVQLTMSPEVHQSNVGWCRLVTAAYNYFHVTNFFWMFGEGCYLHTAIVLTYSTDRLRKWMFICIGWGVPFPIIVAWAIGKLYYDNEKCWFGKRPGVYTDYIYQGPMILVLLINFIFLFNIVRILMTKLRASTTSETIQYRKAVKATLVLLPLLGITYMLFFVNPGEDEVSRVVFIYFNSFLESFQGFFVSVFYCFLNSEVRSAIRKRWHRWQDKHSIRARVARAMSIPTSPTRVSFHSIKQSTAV
Assay: Binding Assay: A binding competition experiment with CRF was conducted by the SPA (GE Healthcare) method using a 96-well plate.

CCCN(c1c(OC)nn2c(-c3c(OC)cc(Cl)cc3OC)csc12)C1CCOCC1
IC50: 74 nM
